Measurements taken from patent US11679168B2, “Caspase-3-triggered molecular self-assembling PET probes and uses thereof” (The Board of Trustees of the Leland Stanford Junior …, priority 2018, dated 2023).

Test system: H460 tumor
Test: PET/CT imaging of H460 tumor-bearing mice
Format: in vivo
Experimental: FIGS. 4A and 4D illustrate representative 55- to 60-min axial and sagittal fused PET/CT images. Nude mice received approximately 200 μCi of [18F]-C-SNAT4 via tail vein injection, with PET/CT images acquired at 55 to 60 min after injection. Arrowheads indicate the tumor, identified from the CT images. H460 and H1299 tumor bearing mice were naïve, or 24 h following last dose of cisplatin treatment (Low dose: 3 mg/kg every other day for three times; high dose: 9 mg/kg every other day for three times).
Animal model and probe administration: For subcutaneous tumor models, H460 or H1299 (2×10^6 cells in 100 μl of PBS) were injection subcutaneously on the back of female nu/nu nude mice (aged 6 to 8 weeks; Charles River Laboratories). Tumor dimensions were measured periodically using a caliper (by the same researcher), with tumor volumes calculated by the following equation: volume=a×b×c/2, where a, b, and c represent three orthogonal axis of the tumor. Treatment-response analysis was performed 24 h after drug treatment. For all other experiments, animals were culled 26 h after therapy and tissues excised for analysis. For chemotherapy mouse model, tumors were grown to about 150 mm^3, and then treatment that consisted of cisplatin (Sigma-Aldrich; Low dose: 3 mg/kg; high dose: 9 mg/kg) or saline was initiated through intravenous administration, every other day for three times. Total mouse body weight and tumor size were measured every other day. Treat or left untreated. For radiotherapy mouse model, treatment consisted of two fractions of 5 Gy or 2 Gy dose of radiation therapy delivered with a single 225 kV beam using the Kimtron IC 225 irradiator (Kimtron Medical, CT, USA).
Small-animal PET/CT imaging and analysis: PET/CT imaging was carried out on a docked Siemens Inveon PET/CT scanner (matrix size, 128×128×159; CT attenuation-corrected; non-scatter corrected) (Siemens Medical Solutions USA) following a bolus intravenous injection of approximately 200 μCi of [^18F]-C-SNAT4 into tumor-bearing mice (n=56, 3-4 mice per group). Dynamic scans were acquired in list mode format over 90 min, and sorted into 22 times of frames, 0.5-mm sinogram bins for image reconstruction (4×15 s, 4×60 s, 11×300 s, 3×600 s). Mice were anesthetized with 2% isoflurane near the center of the FOV to ensure the highest image resolution and sensitivity. Iterative reconstruction was performed using 3D ordered-subsets expectation maximization (3D-OSEM) followed by fast maximum a posteriori (fast MAP) with the following parameters: MAP OSEM iterations, 2; MAP subsets, 16; MAP iterations, 18. Siemens Inveon Research Workplace software v.4.0 was used for visualization of radiotracer uptake in the tumor, to define the three-dimensional (3D) volumes of interest (VOI) and for 3D-visualisation to create volume rendering technique (VRT) images. The relative tumor or organ radioactivity concentrations were from mean pixel values within the multiple ROI volumes. The radioactivity concentration within organs was obtained from mean pixel values with in the VOI and converted to counts per milliliter per min and then divided by the injected dose (ID) to obtain an imaging VOI-derived percentage of the injected radioactive dose per cubic centimeter of tissue (% ID/cc).

[1] = H460, 2 Gy-treated tumor, [18F]-C-SNAT4 only

CCSSCC(NC(=O)C(CC(=O)O)NC(=O)C(NC(=O)C(CCC(=O)O)NC(=O)C(CC(=O)O)NC(C)=O)C(C)C)C(=O)NCC(=O)NC(Cc1cn(CCOCCOCCOCC[18F])nn1)C(=O)NCc1ccc(C(=O)NCCCOc2cnc(C#N)nc2)cc1 (stereo not shown) [[^18F]-C-SNAT4]
AUC of time activity curve [1]: 123.6±30.9 % ID min/cc
tumor uptake [1]: 1.2±0.3 % ID/cc
AUC of time activity curve (H460, 5 Gy-treated, hot tracer only, t=0 to 85 min): 279.4±16.6 % ID min/cc
tumor uptake (H460, high dose cisplatin (9 mg/kg x3) treated, 85 min post-injection): 1.7±0.1 % ID/cc
AUC of time activity curve (H460, high dose cisplatin treated, t=0 to 85 min): 148.9±10.1 % ID min/cc
tumor uptake (H460, low dose cisplatin (3 mg/kg x3) treated, 85 min post-injection): 1.2±0.1 % ID/cc
AUC of time activity curve (H460, low dose cisplatin treated, t=0 to 85 min): 116.7±6.0 % ID min/cc
AUC of time activity curve (H460, naive tumor, t=0 to 85 min): 67.5±12.0 % ID min/cc
tumor uptake (H460, naïve animals, 85 min post-injection): 0.7±0.11 % ID/cc
AUC of time activity curve (H460, naïve tumors (2 Gy experiment)): 92.1±20.9 % ID min/cc
tumor uptake (H460, two fractions of 5 Gy, hot tracer only, 85 min post injection): 1.0±0.3 % ID/cc
tumor uptake (H460, untreated tumor (2 Gy experiment)): 0.8±0.1 % ID/cc
tumor uptake (H460, untreated tumor, hot tracer (mixture comparison), 85 min): 0.4±0.1 % ID/cc
